Laboratory results taken from ChEMBL document CHEMBL1201862, “PubChem BioAssay data set” (2004).
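All cell lines were grown in 96-well plates and treated with compound for 48 hours. At the GI50, growth is halved.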 Activity calls are given as the source filed them. Cut-off read from the data, not from the text of the source: active = GI50 up to about 1.1 µM and inactive = higher.

Assays:
Assay in all cases: NCI anticancer screen, dose series, 48 h
KM12 = test system: KM12
HL-60 = test system: HL-60
OVCAR-8 = test system: OVCAR-8
RXF 393 = test system: RXF 393
M14 = test system: M14
IGROV-1 = test system: IGROV-1
NCI-H226 = test system: NCI-H226
MDA-N = test system: MDA-N
NCI-H460 = test system: NCI-H460
MDA-MB-435 = test system: MDA-MB-435
SK-MEL-2 = test system: SK-MEL-2
COLO 205 = test system: COLO 205
PC-3 = test system: PC-3
NCI-H522 = test system: NCI-H522
A498 = test system: A498
UACC-62 = test system: UACC-62
SF-295 = test system: SF-295
SN12C = test system: SN12C
UACC-257 = test system: UACC-257
TK-10 = test system: TK-10
CAKI-1 = test system: CAKI-1
SK-MEL-5 = test system: SK-MEL-5
LOX IMVI = test system: LOX IMVI
HOP-62 = test system: HOP-62
MDA-MB-231 = test system: MDA-MB-231
OVCAR-3 = test system: OVCAR-3
UO-31 = test system: UO-31
BT-549 = test system: BT-549
SNB-19 = test system: SNB-19
HT-29 = test system: HT-29
SF-268 = test system: SF-268
RPMI-8226 = test system: RPMI-8226
SK-OV-3 = test system: SK-OV-3
DU-145 = test system: DU-145
SK-MEL-28 = test system: SK-MEL-28
NCI/ADR-RES = test system: NCI/ADR-RES
HCC 2998 = test system: HCC 2998
T47D = test system: T47D
MOLT-4 = test system: MOLT-4
Hs-578T = test system: Hs-578T
A549 = test system: A549
OVCAR-5 = test system: OVCAR-5
Malme-3M = test system: Malme-3M
HCT-116 = test system: HCT-116
EKVX = test system: EKVX
ACHN = test system: ACHN
786-0 = test system: 786-0
OVCAR-4 = test system: OVCAR-4
MCF7 = test system: MCF7
CCRF-CEM = test system: CCRF-CEM
HOP-92 = test system: HOP-92
U-251 = test system: U-251
SW-620 = test system: SW-620
SR = test system: SR
HCT-15 = test system: HCT-15
NCI-H23 = test system: NCI-H23
SF-539 = test system: SF-539

CCC(CCC(C)C1CCC2C3CC=C4CC(OC5OC(CO)C(O)C(O)C5O)CCC4(C)C3CCC12C)C(C)C (configuration not stated)
GI50 (KM12): > 100 µM (inactive)
GI50 (HL-60): > 100 µM (inactive)
GI50 (OVCAR-8): > 100 µM (inactive)
GI50 (RXF 393): > 100 µM (inactive)
GI50 (M14): > 100 µM (inactive)
GI50 (IGROV-1): > 100 µM (inactive)
GI50 (NCI-H226): > 100 µM (inactive)
GI50 (MDA-N): > 100 µM (inactive)
GI50 (NCI-H460): > 100 µM (inactive)
GI50 (MDA-MB-435): > 100 µM (inactive)
GI50 (SK-MEL-2): > 100 µM (inactive)
GI50 (COLO 205): > 100 µM (inactive)
GI50 (PC-3): > 100 µM (inactive)
GI50 (NCI-H522): > 100 µM (inactive)
GI50 (A498): > 100 µM (inactive)
GI50 (UACC-62): > 100 µM (inactive)
GI50 (SF-295): 98.9 µM (inactive)
GI50 (SN12C): > 100 µM (inactive)
GI50 (UACC-257): > 100 µM (inactive)
GI50 (TK-10): > 100 µM (inactive)
GI50 (CAKI-1): > 100 µM (inactive)
GI50 (SK-MEL-5): > 100 µM (inactive)
GI50 (LOX IMVI): > 100 µM (inactive)
GI50 (HOP-62): > 100 µM (inactive)
GI50 (MDA-MB-231): > 100 µM (inactive)
GI50 (OVCAR-3): > 100 µM (inactive)
GI50 (UO-31): > 100 µM (inactive)
GI50 (BT-549): > 100 µM (inactive)
GI50 (SNB-19): > 100 µM (inactive)
GI50 (HT-29): > 100 µM (inactive)
GI50 (SF-268): > 100 µM (inactive)
GI50 (RPMI-8226): > 100 µM (inactive)
GI50 (SK-OV-3): > 100 µM (inactive)
GI50 (DU-145): > 100 µM (inactive)
GI50 (SK-MEL-28): > 100 µM (inactive)
GI50 (NCI/ADR-RES): > 100 µM (inactive)
GI50 (HCC 2998): > 100 µM (inactive)
GI50 (T47D): > 100 µM (inactive)
GI50 (MOLT-4): > 100 µM (inactive)
GI50 (Hs-578T): > 100 µM (inactive)
GI50 (A549): > 100 µM (inactive)
GI50 (OVCAR-5): > 100 µM (inactive)
GI50 (Malme-3M): > 100 µM (inactive)
GI50 (HCT-116): > 100 µM (inactive)
GI50 (EKVX): > 100 µM (inactive)
GI50 (ACHN): > 100 µM (inactive)
GI50 (786-0): > 100 µM (inactive)
GI50 (OVCAR-4): > 100 µM (inactive)
GI50 (MCF7): > 100 µM (inactive)
GI50 (CCRF-CEM): > 100 µM (inactive)
GI50 (HOP-92): > 100 µM (inactive)
GI50 (U-251): > 100 µM (inactive)
GI50 (SW-620): > 100 µM (inactive)
GI50 (SR): 26.4 µM (inactive)
GI50 (HCT-15): > 100 µM
GI50 (NCI-H23): > 100 µM (inactive)
GI50 (SF-539): > 100 µM (inactive)
